Source: article PMC11899342, “Novel Triazeneindole Antibiotics: Synthesis and Hit-to-Lead Optimization” (International Journal of Molecular Sciences, 2025)
Like-named read-outs stand apart in the source and are kept apart here.

Columns and labels:
[1] = tested on: MRSA clinical isolates; test: MIC by broth microdilution against multidrug-resistant MRSA clinical isolates; assay type: cell-based, Staphylococcus aureus; conditions: for MIC Range Against 8 MRSA Strains: 8 multidrug-resistant MRSA clinical isolates, tested 0.125-1 mg/L; for MIC: Staphylococcus aureus
Summary of the method: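 Multidrug-resistant clinical MRSA isolates, 1 × 10^6 CFU/mL suspension in Mueller Hinton broth, broth microdilution with compounds at final 1, 0.5, 0.25 and 0.125 mg/L. Incubated 18 h at 37 °C; MIC taken as lowest concentration with no visible growth, triplicate.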

[2] = tested on: human embryonic fibroblasts (HEFs); test: MTT cytotoxicity on human embryonic fibroblasts; assay type: cell-based; conditions: Homo sapiens, Fibroblast, 24 h, ND = non-toxic in tested concentrations (up to 50 mg/L)
Experimental: (§1) The primary screening of 22 substances was performed on human embryonic fibroblasts (HEFs). […] The HepG2 cell line was obtained from the American Type Culture Collection (ATCC cat. # HB-8065). The primary HEF cells (normal human embryonic fibroblasts) were derived from human embryonic stem cells. The cells were cultured in DMEM/F12 (1:1) medium containing 10% fetal bovine serum (Invitrogen, Carlsbad, CA, USA) at 37 °C and 5% CO2, according to standard mammalian tissue culture protocols and sterile technique. […] The incubation time with the substance was 24 h for all substances and cell lines. Cell detachment by trypsin, centrifugation, and counting in a hemocytometer were performed 16 h before the addition of the substance. For correct counting of the HepG2 cells, the cell suspension was passed through a syringe needle to get rid of cell aggregates. The cells were placed in the wells of a 96-well plate. The number of cells was selected according to the properties of the cell line and the final optical density in the experiment. Fibroblasts and hepatocytes were used in the amount of 10 thousand cells per well in 100 μL of DMEM/F12 medium supplemented with 10% fetal bovine serum. The substances were added to 100 µL of medium in the wells so that the final concentrations were 50, 25, 12.5, 6.25, 3.125, and 1.62 mg/L. The final well volume was 200 µL. The medium containing fetal bovine serum, without added substances, was used as a negative control. After 24 h, excessive amounts of medium were discarded. A total of 30 µL of MTT solution (5 mg/mL in PBS) was added to each well. After the precipitation of formazan crystals (3 h incubation), they were dissolved using 100 μL of dimethyl sulfoxide. The optical density (OD) was measured at 570 nm using a microplate reader (Eppendorf). For every condition, the cell viabilities were assessed in at least three independent experiments for every cell culture. Cell survival was calculated using the following formula:(OD of treated cells − OD blank)/(OD of control cells − OD blank) × 100%, where OD blank represents the OD values in wells without cells but with the addition of the MTT and DMSO solutions. The results were presented in the form of cytotoxicity curves, and the graphs were also plotted in a Microsoft Excel program; the calculation of the IC50 half-maximal inhibition concentration values was performed in a GraphPad Prism 6.0 (GraphPad Software Inc., San Diego, CA, USA) program, based on the equations of the cytotoxicity curves.

[3] = tested on: HepG2 human liver carcinoma cells; test: MTT cytotoxicity (hepatotoxicity) on HepG2; assay type: cell-based; conditions: Homo sapiens, HepG2, 24 h
Experimental: as §1

[4] = tested on: MRSA; test: Selectivity index (average IC50 on eukaryotic cells / average MIC on MRSA); assay type: cell-based, Staphylococcus aureus; conditions: average IC50 on eukaryotic cells divided by average MIC on MRSA
Experimental: The selectivity index was calculated for each compound as the average IC50 on eukaryotic cells divided by the average MIC on MRSA (Table 2).

[5] = Solubility in water by HPLC; assay type: physicochemical; conditions: water
Summary of the method: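 Compound (1.0 mg in 10 μL DMSO) mixed with 1.0 mL water, shaken 5 min and centrifuged; supernatant analysed by C18 HPLC. Water concentration derived from peak area relative to an acetonitrile standard at 1.0 mg/mL.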

[6] = MRSA, Table S4, MRSA strain 1, read-out: MIC
[7] = MRSA, Table S4, MRSA strain 2, read-out: MIC
[8] = MRSA, Table S4, MRSA strain 3, read-out: MIC
[9] = MRSA, Table S4, MRSA strain 4, read-out: MIC
[10] = MRSA, Table S4, MRSA strain 5, read-out: MIC
[11] = MRSA, Table S4, MRSA strain 6, read-out: MIC
[12] = MRSA, Table S4, MRSA strain 7, read-out: MIC
[13] = MRSA, Table S4, MRSA strain 8, read-out: MIC
[14] = MRSA, Table S4, MRSA strain 9, read-out: MIC
[15] = MRSA, Table S4, MRSA strain 10, read-out: MIC
[16] = MRSA, Table S4, MRSA strain 12, read-out: MIC
[17] = MRSA, Table S4, MRSA strain 13, read-out: MIC
[18] = MRSA, Table S4, MRSA strain 14, read-out: MIC
[19] = MRSA, Table S4, MRSA strain 15, read-out: MIC
[20] = MRSA, Table S4, MRSA strain 16, read-out: MIC
[21] = MRSA, Table S4, MRSA strain 17, read-out: MIC
[22] = MRSA, Table S4, MRSA strain 18, read-out: MIC
[23] = MRSA, Table S4, MRSA strain 21, read-out: MIC
[24] = MRSA, Table S4, MRSA strain 23, read-out: MIC
[25] = MRSA, Table S4, MRSA strain 24, read-out: MIC
[26] = MRSA, Table S4, MRSA strain 25, read-out: MIC
[27] = MRSA, Table S4, MRSA strain 26, read-out: MIC
[28] = MRSA, Table S4, MRSA strain 27, read-out: MIC
[29] = MRSA, Table S4, MRSA strain 28, read-out: MIC
[30] = MRSA, Table S4, MRSA strain 29, read-out: MIC
[31] = MRSA, Table S4, MRSA strain 30, read-out: MIC
[32] = MRSA, Table S4, MRSA strain 31, read-out: MIC
[33] = MRSA, Table S4, MRSA strain 34, read-out: MIC
[34] = MRSA, Table S4, MRSA strain 35, read-out: MIC
[35] = MRSA, Table S4, MRSA strain 36, read-out: MIC
[36] = MRSA, Table S4, MRSA strain 40, read-out: MIC
[37] = MRSA, Table S4, MRSA strain 41, read-out: MIC
[38] = MRSA, Table S4, MRSA strain 42, read-out: MIC
[39] = MRSA, Table S4, MRSA strain 43, read-out: MIC
[40] = MRSA, Table S4, MRSA strain 44, read-out: MIC
[41] = MRSA, Table S4, MRSA strain 45, read-out: MIC
[42] = MRSA, Table S4, MRSA strain 46, read-out: MIC
[43] = MRSA, Table S4, MRSA strain 48, read-out: MIC
[44] = MRSA, Table S4, MRSA strain 49, read-out: MIC
[45] = MRSA, Table S4, MRSA strain 50, read-out: MIC
[46] = MRSA, Table S4, MRSA strain 51, read-out: MIC

CCOC(=O)c1[nH]c2ccccc2c1/N=N/N1CCN(C)CC1 [BX-SI001, Ethyl (E)-3-((4-methylpiperazin-1-yl)diazenyl)-1H-indole-2-carboxylate]
280 µM: solubility at 5 min ([5]; kinetic from dmso stock, read-out: Solubility in water, molar concentration)
19 µg/mL: IC50 [2]
19: Selectivity Index [4]
1 µg/mL: MIC Range Against 8 MRSA Strains [1] | MIC [1, 7] | MIC [1, 8] | MIC [1, 9] | MIC [1, 12] | MIC [1, 13] | MIC [1, 14] | MIC [1, 15] | MIC [1, 16] | MIC [1, 17] | MIC [1, 18] | MIC [1, 19] | MIC [1, 21] | MIC [1, 22] | MIC [1, 23] | MIC [1, 24] | MIC [1, 25] | MIC [1, 26] | MIC [1, 28] | MIC [1, 29] | MIC [1, 30] | MIC [1, 31] | MIC [1, 32] | MIC [1, 33] | MIC [1, 34] | MIC [1, 35] | MIC [1, 36] | MIC [1, 37] | MIC [1, 38] | MIC [1, 39] | MIC [1, 40] | MIC [1, 41] | MIC [1, 42] | MIC [1, 43] | MIC [1, 44] | MIC [1, 45] | MIC [1, 46]
90.5 µg/mL: solubility at 5 min ([5]; kinetic from dmso stock, read-out: Solubility in water, mass concentration)
22 µg/mL: IC50 [3]
0.5 µg/mL: MIC [1, 6] | MIC [1, 10] | MIC [1, 11] | MIC [1, 20] | MIC [1, 27]

CCOC(=O)c1[nH]c2cc(F)ccc2c1/N=N/N1CCCC1 [BX-SI043, Ethyl (E)-6-fluoro-3-(pyrrolidin-1-yldiazenyl)-1H-indole-2-carboxylate]
19 µg/mL: IC50 [2] | IC50 [3]
0.5 µg/mL: MIC [1, 7] | MIC [1, 8] | MIC [1, 9] | MIC [1, 11] | MIC [1, 12] | MIC [1, 14] | MIC [1, 17] | MIC [1, 21] | MIC [1, 22] | MIC [1, 23] | MIC [1, 24] | MIC [1, 25] | MIC [1, 26] | MIC [1, 28] | MIC [1, 29] | MIC [1, 30] | MIC [1, 31] | MIC [1, 32] | MIC [1, 34] | MIC [1, 36] | MIC [1, 38] | MIC [1, 39] | MIC [1, 40] | MIC [1, 41] | MIC [1, 42] | MIC [1, 43] | MIC [1, 45] | MIC [1, 46]
0.88 µg/mL: solubility at 5 min ([5]; read-out: Solubility in water, mass concentration)
0.125 µg/mL: MIC [1, 33]
3 µM: solubility at 5 min ([5]; read-out: Solubility in water, molar concentration)
0.125 to 0.5 µg/mL: minimal inhibitory concentration range ([1]; 41 multidrug-resistant MRSA strains)
76: Selectivity Index [4]
0.25 µg/mL: MIC Range Against 8 MRSA Strains [1] | MIC ([1]; MRSA, 8 MRSA strains, read-out: lowest MIC values against most tested strains) | MIC ([1]; MRSA, Figure 6, MRSA strain 2, read-out: MIC against 8 MRSA strains) | MIC ([1]; MRSA, Figure 6, MRSA strain 7, read-out: MIC against 8 MRSA strains) | MIC ([1]; MRSA, Figure 6, MRSA strain 8, read-out: MIC against 8 MRSA strains) | MIC ([1]; MRSA, Figure 6, MRSA strain 9, read-out: MIC against 8 MRSA strains) | MIC ([1]; MRSA, Figure 6, MRSA strain 13, read-out: MIC against 8 MRSA strains) | MIC ([1]; MRSA, Figure 6, MRSA strain 21, read-out: MIC against 8 MRSA strains) | MIC ([1]; MRSA, Figure 6, MRSA strain 48, read-out: MIC against 8 MRSA strains) | MIC ([1]; MRSA, Figure 6, MRSA strain 50, read-out: MIC against 8 MRSA strains) | MIC [1, 6] | MIC [1, 10] | MIC [1, 13] | MIC [1, 15] | MIC [1, 16] | MIC [1, 18] | MIC [1, 19] | MIC [1, 20] | MIC [1, 27] | MIC [1, 35] | MIC [1, 37] | MIC [1, 44]
4–8 times: times lower MIC than either vancomycin or linezolid ([1]; MRSA)
